# Experimental data taken from article PMC7044277 (Nature Communications, 2020).
# “And” between values parts separate entries of the source, which are not always exact repeats. Equal values may be shown once.
# Legend:
# Type in all cases: cell-based
# 320 non-olfactory GPCRs [1] = biological target: T1, 320 non-olfactory GPCRs (Homo sapiens, UniProt O00574)
# T1 construct: expressed in transfected cells; host or cells: HTLA cells
# 320 non-olfactory GPCRs [2] = biological target: 320 non-olfactory GPCRs (Homo sapiens, UniProt P21917)
# 320 non-olfactory GPCRs [3] = biological target: T2, 320 non-olfactory GPCRs (Homo sapiens, UniProt P35368)
# T2 construct: expressed in transfected cells; host or cells: HTLA cells
# 320 non-olfactory GPCRs [4] = biological target: 320 non-olfactory GPCRs (Homo sapiens, UniProt P21918)
# 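Note: compound tested at 1 µM final concentration.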
# T1 sequence (O00574 whole entry): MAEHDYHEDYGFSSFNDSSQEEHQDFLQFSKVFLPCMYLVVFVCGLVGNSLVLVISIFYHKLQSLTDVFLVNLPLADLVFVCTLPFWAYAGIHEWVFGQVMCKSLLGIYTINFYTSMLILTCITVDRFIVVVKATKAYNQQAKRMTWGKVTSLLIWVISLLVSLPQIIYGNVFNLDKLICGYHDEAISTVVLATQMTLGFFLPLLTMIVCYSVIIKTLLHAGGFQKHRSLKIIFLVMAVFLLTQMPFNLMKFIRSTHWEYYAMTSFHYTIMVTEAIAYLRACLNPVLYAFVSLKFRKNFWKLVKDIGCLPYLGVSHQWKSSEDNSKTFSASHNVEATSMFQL
# Chain of 320 non-olfactory GPCRs (Homo sapiens, UniProt P21918) (P21918 whole entry): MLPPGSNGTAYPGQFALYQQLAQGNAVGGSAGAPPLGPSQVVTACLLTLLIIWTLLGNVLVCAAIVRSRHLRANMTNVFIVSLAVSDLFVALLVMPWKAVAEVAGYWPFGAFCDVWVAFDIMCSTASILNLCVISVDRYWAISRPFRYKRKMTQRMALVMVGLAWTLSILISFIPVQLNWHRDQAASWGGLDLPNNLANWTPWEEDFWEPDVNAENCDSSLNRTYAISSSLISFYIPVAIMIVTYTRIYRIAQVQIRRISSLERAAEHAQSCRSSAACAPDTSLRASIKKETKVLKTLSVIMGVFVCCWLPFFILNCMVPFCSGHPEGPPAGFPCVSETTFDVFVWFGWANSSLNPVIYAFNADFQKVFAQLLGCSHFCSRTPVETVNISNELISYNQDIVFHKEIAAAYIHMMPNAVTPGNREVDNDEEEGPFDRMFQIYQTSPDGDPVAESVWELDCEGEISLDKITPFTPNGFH
# T2 sequence (P35368 whole entry): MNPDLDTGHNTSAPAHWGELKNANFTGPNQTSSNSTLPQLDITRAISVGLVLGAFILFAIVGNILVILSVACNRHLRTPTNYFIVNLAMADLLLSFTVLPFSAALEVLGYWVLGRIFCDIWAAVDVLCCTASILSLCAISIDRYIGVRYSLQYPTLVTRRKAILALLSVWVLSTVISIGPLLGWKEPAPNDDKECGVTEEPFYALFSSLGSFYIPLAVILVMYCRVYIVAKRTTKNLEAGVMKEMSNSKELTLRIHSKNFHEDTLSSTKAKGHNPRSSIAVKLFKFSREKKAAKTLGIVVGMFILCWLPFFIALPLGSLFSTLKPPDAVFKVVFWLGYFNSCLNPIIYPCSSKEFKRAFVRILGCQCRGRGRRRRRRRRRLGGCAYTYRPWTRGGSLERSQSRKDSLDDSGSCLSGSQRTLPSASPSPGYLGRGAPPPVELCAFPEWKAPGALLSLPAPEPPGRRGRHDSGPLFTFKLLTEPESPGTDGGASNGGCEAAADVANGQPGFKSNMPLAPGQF
# Chain of 320 non-olfactory GPCRs (Homo sapiens, UniProt P21917) (P21917 whole entry): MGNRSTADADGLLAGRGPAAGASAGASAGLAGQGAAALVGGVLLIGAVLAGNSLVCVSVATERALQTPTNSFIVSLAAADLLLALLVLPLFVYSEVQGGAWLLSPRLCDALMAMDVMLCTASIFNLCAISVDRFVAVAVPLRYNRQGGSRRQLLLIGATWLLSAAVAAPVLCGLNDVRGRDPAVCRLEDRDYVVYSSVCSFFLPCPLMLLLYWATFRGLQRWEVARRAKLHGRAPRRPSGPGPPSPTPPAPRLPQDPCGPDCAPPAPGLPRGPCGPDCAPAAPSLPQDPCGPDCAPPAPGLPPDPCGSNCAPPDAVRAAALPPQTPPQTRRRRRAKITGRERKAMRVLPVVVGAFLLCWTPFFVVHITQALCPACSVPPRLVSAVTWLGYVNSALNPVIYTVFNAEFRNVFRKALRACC
smiles,measurement,setting,value
CCOc1cccc2cc(C(C)NCC3(O)CCCCC3)oc12 (stereo not shown) [O4LE6],Fold of Basal,320 non-olfactory GPCRs [1],0.9849 and 0.6404 and 1.204 and 0.796
same,Fold of Basal,320 non-olfactory GPCRs [2],1.429 and 1.1388 and 0.8668 and 1.288
same,Fold of Basal,320 non-olfactory GPCRs [3],1.636 and 0.8834 and 1.032 and 1.027
same,Fold of Basal,320 non-olfactory GPCRs [4],1.173 and 0.6004 and 0.7155 and 0.7884
